Columns and labels:
pigweed [1] = assay: Test A preemergence; format: in vivo, Amaranthus retroflexus
Summary of the method: (§1)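 Visual injury scored 0–100 (100 = complete control) against untreated controls about 10 days after treatment in a greenhouse. Test chemicals, formulated with surfactant in non-phytotoxic solvent, were sprayed on soil preemergence or on 2-10 cm, one- to two-leaf plants postemergence.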

wheat [2] = assay: Test A preemergence; format: in vivo, Triticum aestivum
Summary of the method: as §1

wheat [3] = assay: Test A postemergence; format: in vivo, Triticum aestivum
Summary of the method: as §1

morningglory = assay: Test A preemergence; format: in vivo, Ipomoea spp.
Summary of the method: as §1

pigweed [4] = assay: Test A postemergence; format: in vivo, Amaranthus retroflexus
Summary of the method: as §1

sedge, umbrella = assay: Test B flooded paddy test; format: in vivo, Cyperus difformis; conditions: Flood, 250 g ai/ha, 0 to 100 scale where 0 is no effect and 100 is complete control
Summary of the method: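 Flooded to 3 cm at the 2-leaf stage, pots received compound through the paddy water and were kept at that depth under greenhouse conditions. After 13–15 days, effect was rated by eye relative to controls, 0 = none and 100 = complete control.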

Italian ryegrass = assay: Test C preemergence; format: in vivo, Lolium multiflorum; conditions: for Ryegrass, Italian plant response rating: preemergence; for Plant response rating, Ryegrass, Italian: Preemergence, scale 0 to 100, 0 no effect, 100 complete control
Excerpt: (§2) Seeds of plant species selected from blackgrass (Alopecurus myosuroides), Italian ryegrass (Lolium multiflorum), wheat, winter (winter wheat, Triticum aestivum), galium (catchweed bedstraw, Galium aparine), corn (Zea mays), large (Lg) crabgrass (Digitaria sanguinalis), giant foxtail (Setaria faberii), johnsongrass (Sorghum halepense), lambsquarters (Chenopodium album), morningglory (Ipomoea coccinea), yellow nutsedge (Cyperus esculentus), pigweed (Amaranthus retroflexus), ragweed (common ragweed, Ambrosia elatior), soybean (Glycine max), barnyardgrass (Echinochloa crus-galli), oilseed rape (Brassica napus), waterhemp (common waterhemp, Amaranthus rudis), kochia (Kochia scoparia), wild oat (Avena fatua), surinam grass (Brachiaria decumbens), foxtail, green (green foxtail, Setaria viridis), goosegrass (Eleusine indica), bromegrass, downy (downy bromegrass, Bromus tectorum), nightshade (eastern black nightshade, Solanum ptycanthum), cocklebur (common cocklebur, Xanthium strumarium), cupgrass, woolly (woolly cupgrass, Eriochloa villosa), bermudagrass (Cynodon dactylon), sunflower, (common oilseed sunflower, Helianthus annuus), Russian thistle (Salsola kali), and velvetleaf (Abutilon theophrasti) were planted into a blend of loam soil and sand and treated preemergence with test chemicals formulated in a non-phytotoxic solvent mixture which included a surfactant.
(§3) At the same time, plants selected from these crop and weed species and also barley, winter (winter barley, Hordeum vulgare), windgrass (Apera spica-venti), chickweed (common chickweed, Stellaria media), deadnettle (henbit deadnettle, Lamium amplexicaule), and canarygrass (littleseed canarygrass, Phalaris minor) were planted in pots containing Redi-Earth® planting medium (Scotts Company, 14111 Scottslawn Road, Marysville, Ohio 43041) comprising spaghnum peat moss, vermiculite, wetting agent and starter nutrients and treated with postemergence applications of test chemicals formulated in the same manner. Plants ranged in height from 2 to 18 cm (1- to 4-leaf stage) for postemergence treatments. Treated plants and controls were maintained in a greenhouse for 13 to 15 days, after which time all species were compared to controls and visually evaluated. Plant response ratings, summarized in Table C, are based on a scale of 0 to 100 where 0 is no effect and 100 is complete control. A dash (-) response means no test result.

galium = assay: Test C preemergence; format: in vivo, Galium aparine; conditions: for Galium plant response rating: preemergence; for Plant response rating, Galium: Preemergence, scale 0 to 100, 0 no effect, 100 complete control
Excerpt: as §2, §3

[5] = 125 g ai/ha, 0 to 100 scale where 0 is no effect and 100 is complete control
[6] = 500 g ai/ha, 0 to 100 scale, 0 no effect, 100 complete control, approx. 10 days
[7] = 500 g ai/ha, 0 to 100 scale, 0 no effect, 100 complete control
[8] = 16 g ai/ha, scale 0 to 100 (0 no effect, 100 complete control)
[9] = 62 g ai/ha, scale 0 (no effect) to 100 (complete control)
[10] = 125 g ai/ha, scale 0 (no effect) to 100 (complete control)
[11] = 31 g ai/ha, 0 to 100 scale, 0 no effect, 100 complete control
[12] = 500 g ai/ha, 0 to 100 scale where 0 is no effect and 100 is complete control
[13] = 31 g ai/ha, 0 to 100 scale where 0 is no effect and 100 is complete control, visual, approximately 10 days
[14] = 125 g ai/ha, 0 to 100 scale, 0 no effect, 100 complete control

Structure (SMILES)	Plant response rating, Sedge, Umbrella (sedge, umbrella)	Ryegrass, Italian plant response rating (Italian ryegrass; [8])	Ryegrass, Italian plant response rating (Italian ryegrass; [9])	Ryegrass, Italian plant response rating (Italian ryegrass; [10])	Plant response rating, Pigweed (pigweed [1]; [5])	Plant response rating, Wheat (wheat [3]; [11])	Galium plant response rating (galium; [8])	Galium plant response rating (galium; [9])	Galium plant response rating (galium; [10])	Plant response rating, Galium (galium; 31 g ai/ha)	Plant response rating, Pigweed (pigweed [4]; [11])	Wheat plant response rating (wheat [3]; [5])	Pigweed plant response rating (pigweed [4]; [5])	Plant response rating, Pigweed (pigweed [1]; [13])	other results
FC(F)(F)c1ccn(-c2ccccc2Oc2ncc(Cl)cn2)n1 [Compound 2, 5-chloro-2-[2-[3-(trifluoromethyl)-1H-pyrazol-1-yl]phenoxy]pyrimidine]															pest or weed control at 125 g/ha (pigweed [1]; Amaranthus retroflexus, pre-emergence, 240 h, 125 g ai/ha, 0 to 100 scale where 0 is no effect and 100 is complete control, read-out: Pigweed plant response rating): 90%; pest or weed control at 500 g/ha (pigweed [1]; Amaranthus retroflexus, pre-emergence, 240 h, 500 g ai/ha, 0 to 100 scale, 0 no effect, 100 complete control, approx. 10 days, read-out: Pigweed plant response rating): 100%; plant injury at 125 g/ha (wheat [2]; Triticum aestivum, pre-emergence, 240 h, 125 g ai/ha, 0 to 100 scale where 0 is no effect and 100 is complete control, read-out: Wheat plant response rating): 0%; plant injury at 500 g/ha (wheat [2]; Triticum aestivum, pre-emergence, 240 h, 500 g ai/ha, 0 to 100 scale, 0 no effect, 100 complete control, approx. 10 days, read-out: Wheat plant response rating): 0%; plant injury at 125 g/ha (wheat [3]; Triticum aestivum, post-emergence, 240 h, 125 g ai/ha, 0 to 100 scale where 0 is no effect and 100 is complete control, read-out: Plant response rating, Wheat): 0%; plant injury at 500 g/ha (wheat [3]; Triticum aestivum, post-emergence, 240 h, 500 g ai/ha, 0 to 100 scale, 0 no effect, 100 complete control, read-out: Plant response rating Wheat): 0%; pest or weed control at 500 g/ha (morningglory; Ipomoea, pre-emergence, 240 h, 500 g ai/ha, 0 to 100 scale, 0 no effect, 100 complete control, approx. 10 days, read-out: Morningglory plant response rating): 20%; pest or weed control at 125 g/ha (pigweed [4]; Amaranthus retroflexus, post-emergence, 125 g ai/ha, 0 to 100 scale where 0 is no effect and 100 is complete control, read-out: Plant response rating, Pigweed): 60%; pest or weed control at 500 g/ha (pigweed [4]; Amaranthus retroflexus, post-emergence, 240 h, 500 g ai/ha, 0 to 100 scale, 0 no effect, 100 complete control, read-out: Plant response rating Pigweed): 100%; pest or weed control at 250 g/ha (sedge, umbrella; Cyperus difformis, read-out: Plant response rating, Sedge, Umbrella): 0%
Clc1cnc(Oc2ccccc2-n2cc(Cl)cn2)nc1 [Compound 3]	75														Pigweed plant response rating (pigweed [1]; [5]): 90; Pigweed plant response rating (pigweed [1]; [6]): 100; Wheat plant response rating (wheat [2]; [5]): 0; Wheat plant response rating (wheat [2]; [6]): 10; Plant response rating, Wheat (wheat [3]; [5]): 0; Plant response rating, Wheat (wheat [3]; [7]): 0; Morningglory plant response rating (morningglory; [5]): 0; Morningglory plant response rating (morningglory; [6]): 20; Plant response rating, Pigweed (pigweed [4]; [5]): 90; Plant response rating, Pigweed (pigweed [4]; [7]): 100
FCc1cccc(Oc2ncc(F)cn2)c1-n1cc(C(F)(F)F)cn1 [Compound 118]	95	0	70	100	100	20	95	100	100	95	70				Plant response rating, Ryegrass, Italian (Italian ryegrass; 31 g ai/ha): 40; Pigweed plant response rating (0 to 100 scale) (pigweed [1]; 31 g ai/ha): 100
COc1cnn(-c2c(C#N)cccc2Oc2ncc(Cl)cn2)c1 [Compound 137]	0	0	0	0	90		5	10	95	5		30	70		Pigweed plant response rating (pigweed [1]; [12]): 100; Plant response rating, Wheat (wheat [3]; [12]): 70; Plant response rating, Pigweed (pigweed [4]; [12]): 100
N#Cc1cnn(-c2c(CF)cccc2Oc2ncc(F)cn2)c1 [Compound 151]	0	0	35	45	90	20					20	30	70	90	
FCc1cccc(Oc2ncc(Cl)cn2)c1-n1cc(Cl)cn1 [Compound 250]	35	0		15		0	0		98		60			80	Plant response rating, Ryegrass, Italian (Italian ryegrass; 62 g ai/ha): 5; Pigweed plant response rating (0 to 100 scale) (pigweed [1]; 125 g ai/ha): 100; Plant response rating, Wheat (wheat [3]; [14]): 0; Plant response rating, Galium (galium; 62 g ai/ha): 70; Plant response rating, Pigweed (pigweed [4]; [14]): 90

— US9695155B2, “Herbicidal substituted pyrimidinyloxy benzene compounds” (E. I. DU PONT DE NEMOURS AND COMPANY, priority 2013, dated 2017)
